The target in data set [1] is HCV replicon. Put plainly: Anti-HCV replicon assay (EC50, luciferase). The conditions noted are these: Table 1; Huh-7 HCV replicon cells, 3 days, luciferase; read-out: EC50. It counts as cell-based, Hepatitis C virus (HCV). The procedure: (§1) The anti HCV activity of specifically 2,4,6-trisubstituted pteridine derivatives was tested in a human hepatoma Huh-7 cell line harbouring a HCV replicon. The assay comprised the following steps:
(§2) Step 1: compound preparation and serial dilution involved the following alternatives, depending upon the water solubility of pteridine derivative being tested: • 1. with respect to water soluble 2,4,6-trisubstituted pteridine derivatives, 500 μL of solution in cell media (DMEM, 10% FBS, P/S, L-Glutamine) was prepared with a concentration that is twice the concentration of the starting final serial dilution concentration. 150 μL of the solution was added to the pre-specified wells in column 1 of a 96-well cell culture plate (PerkinElmer, white plate, cat. #6005181, for EC50 assay; black plate, cat. #6005182 for CC50 assay). The rest of the plate, i.e. columns 2-12, was filled with 100 μL of cell media. The plate was then placed on a Precision 2000 Workstation in order to start serial dilution. Pteridine compounds were diluted three times each step from column 1 to column 10. Column 11 was used as a blank control (no pteridine compound added). • 2. With respect to poorly water soluble pteridine derivatives, DMSO was used as a solvent, and serial dilution was performed in 50% DMSO in water, in a 384-well plate. A solution containing the relevant compound at 100-fold the concentration of the starting final serial dilution concentration was prepared in 50% DMSO in water and added to the pre-specified wells in column 1 of a polypropylene 384-well plate. This plate was then placed on a Precision 2000 Workstation in order to start serial dilution. After serial dilution, 2 μL of the solution was transferred from the 384-well plate to a 96-well cell culture plate containing 100 μL of cell media on a Biomek FX Workstation. The DMSO concentration in the final assay condition was 0.5% after cells have been added to the plate and the total volume in each well was brought to 200 μL. Step 2: to each well of the serial dilution plate prepared in step 1, 100 μL of cell media containing 6000 suspended Huh-7 HCV replicon cells was added with a Multidrop workstation. Plates were incubated for 3 days at 37° C. with 5% CO2. Step 3: detection: • 1) with respect to the EC50 assay, the media in a 96-well cell culture plate was aspirated with a Biotek EL405 plate-washer. A volume of 200 μL of a solution containing a 1:1 mixture of a cell-lysis buffer (commercially available from Promega, Luciferase Cell Culture Lysis 5× Reagent, cat. #E1531) and a luciferase substrate solution (commercially available from Promega, Luciferase Assay, cat. # E4550) was added to each well of the plate with Multidrop. The plate was incubated for 30 minutes at room temperature before the luminescence signal was measured with a TopCount plate-reader. • 2) with respect to the CC50 assay, 100 μL of a pre-mixed CellTiter-Glo (commercially available from Promega, cat. # G7572) solution was added directly to the cell culture in each well of the plate and the luminescence signal was measured with a TopCount plate-reader after 10 minutes of incubation at room temperature.
(§3) Results are expressed by the following data: • the 50% effective concentration (EC50), i.e. the concentration that protects 50% of the cell monolayer from virus-induced cythopathic effect, and • the 50% cytostatic concentration (CC50), i.e. the concentration that results in 50% inhibition of cell growth.

In data set [2] the test system is Huh-7 HCV replicon cells. Put plainly: CC50 assay (CellTiter-Glo) in Huh-7 HCV replicon cells. It counts as cell-based, human. The following applies: Table 1, 3 days. The procedure: as §1, §2, §3
For orientation: In ATP-based viability assays light output follows the ATP content of the culture.

As usually defined, the EC50 is the concentration that produces a half-maximal response. By CC50 is commonly meant the concentration that lowers cell viability or growth by half. Read a low CC50 as harm at low concentration. As for `COc1ccc(-c2cnc3nc(N)nc(N4CCN(C(=O)COc5ccccc5)CC4)c3n2)cc1OC` [Example 1], the EC50 in data set [1] was below 0.3 µM. For the same molecule, the CC50 in data set [2] was above 20 µM.
Taken in the same sequence, the figures for `COc1ccc(-c2cnc3nc(N)nc(N4CCN(CCOc5ccccc5)CC4)c3n2)cc1OC` [Example 2] were below 0.3 µM and above 20 µM.
In the same order, the values of `COc1ccc(-c2cnc3nc(N)nc(N4CCN(C(=O)Nc5cccc(C)c5)CC4)c3n2)cc1OC` [Example 3] are below 0.3 µM and below 10 µM.
In the same order, the values of `COc1ccc(-c2cnc3nc(NCc4cccs4)nc(N)c3n2)cc1OC` [Example 12] are 0.3 to 1 µM and 10 to 20 µM.
As for `CCCCCC(=O)N1CCN(c2nc(N)nc3ncc(-c4ccc(OC)c(OC)c4)nc23)CC1` [Example 16], the EC50 in data set [1] was below 0.3 µM. In data set [2], this molecule yielded a CC50 of 10 to 20 µM.
Taken in the same sequence, the figures for `COc1ccc(-c2cnc3nc(N)nc(N4CCN(C(=O)c5cccs5)CC4)c3n2)cc1OC` [Example 19] were below 0.3 µM and 10 to 20 µM.
Taken in the same sequence, the figures for `CCN(CC)C(=O)N1CCN(c2nc(N)nc3ncc(-c4ccc(OC)c(OC)c4)nc23)CC1` [Example 20] were below 0.3 µM and above 20 µM.
Taken in the same sequence, the figures for `COc1ccc(-c2cnc3nc(N)nc(N4CCN(C(=O)c5ccncc5)CC4)c3n2)cc1OC` [Example 22] were below 0.3 µM and 10 to 20 µM.
As for `CCCCCOc1ccc(C(=O)N2CCN(c3nc(N)nc4ncc(-c5ccc(OC)c(OC)c5)nc34)CC2)cc1` [Example 24], the EC50 in data set [1] is below 0.3 µM. Moreover, the CC50 in data set [2] was below 10 µM.
Taken in the same sequence, the figures for `COc1ccc(-c2cnc3nc(N)nc(N4CCN(S(=O)(=O)c5ccccc5)CC4)c3n2)cc1OC` [Example 26] were below 0.3 µM and 10 to 20 µM.
`COc1ccc(-c2cnc3nc(N)nc(N4CCN(C(=O)Cc5cccs5)CC4)c3n2)cc1OC` [Example 27]: in data set [1], the EC50 was below 0.3 µM. In addition, in data set [2], the CC50 is below 10 µM.
In the same order, the values of `COc1ccc(-c2cnc3nc(N)nc(N4CCN(C(=O)/C=C/c5ccccc5)CC4)c3n2)cc1OC` [Example 28] are below 0.3 µM and below 10 µM.
In the same order, the values of `COc1ccc(-c2cnc3nc(N)nc(N4CCN(C(=O)N5CCCC5)CC4)c3n2)cc1OC` [Example 29] are below 0.3 µM and 10 to 20 µM.
Take `COc1ccc(-c2cnc3nc(N)nc(N4CCN(C(=O)c5cc(F)c(Cl)nc5Cl)CC4)c3n2)cc1OC` [Example 31]: in data set [1], the EC50 was below 0.3 µM. The CC50 in data set [2] was below 10 µM.
In the same order, the values of `COCC(=O)N1CCN(c2nc(N)nc3ncc(-c4ccc(OC)c(OC)c4)nc23)CC1` [Example 32] are below 0.3 µM and above 20 µM.
Taken in the same sequence, the figures for `COc1ccc(-c2cnc3nc(N)nc(N4CCN(S(=O)(=O)Cc5ccccc5)CC4)c3n2)cc1OC` [Example 34] were below 0.3 µM and above 20 µM.
`COc1ccc(-c2cnc3nc(N)nc(N4CCN(C(=O)Cc5ccc(Cl)cc5)CC4)c3n2)cc1OC` [Example 36]: in data set [1], the concentration for a half-maximal effect (EC50) was below 0.3 µM. Besides, in data set [2], the CC50 was below 10 µM.
On to `COc1ccc(-c2cnc3nc(N)nc(N4CCN(C(=O)c5ccoc5)CC4)c3n2)cc1OC` [Example 38], for which, in data set [1], the EC50 lay in the range of 0.3 to 1 µM. For the same molecule, in data set [2], the CC50 was in the range of 10 to 20 µM.
For the molecule `COc1ccc(-c2cnc3nc(N)nc(N4CCN(C(=O)OCc5ccccc5)CC4)c3n2)cc1OC` [Example 43], the EC50 in data set [1] is below 0.3 µM. The CC50 in data set [2] was below 10 µM.
Consider `COc1ccc(-c2cnc3nc(N)nc(N4CCN(Cc5cccc(C)c5)CC4)c3n2)cc1OC` [Example 49], for which, in data set [1], the EC50 was below 0.3 µM. In data set [2], this molecule showed a CC50 of 10 to 20 µM.
For the molecule `COc1ccc(-c2cnc3nc(N)nc(N4CCN(Cc5ccc(C)cc5)CC4)c3n2)cc1OC` [Example 52], in data set [1], the EC50 lay within 0.3 to 1 µM. Besides, in data set [2], the CC50 is above 20 µM.
In the same order, the values of `COc1ccc(-c2cnc3nc(N)nc(N4CCN(Cc5ccccc5F)CC4)c3n2)cc1OC` [Example 53] are below 0.3 µM and below 10 µM.
Consider `CCCCc1ccc(C(=O)N2CCN(c3nc(N)nc4ncc(-c5ccc(OC)c(OC)c5)nc34)CC2)cc1` [Example 54], for which, in data set [1], the EC50 is below 0.3 µM. Besides, the CC50 in data set [2] was below 10 µM.
For the molecule `COCCN1CCN(c2nc(N)nc3ncc(-c4ccc(OC)c(OC)c4)nc23)CC1` [Example 55], the EC50 in data set [1] was 0.3 to 1 µM. For the same molecule, the CC50 in data set [2] is above 20 µM.
`COc1ccc(-c2cnc3nc(N)nc(N4CCN(C(=O)Oc5ccc(C)cc5)CC4)c3n2)cc1OC` [Example 59]: the EC50 in data set [1] is below 0.3 µM. In data set [2], this molecule showed a CC50 below 10 µM.
Regarding `COc1ccc(OC(=O)N2CCN(c3nc(N)nc4ncc(-c5ccc(OC)c(OC)c5)nc34)CC2)cc1` [Example 60], the EC50 in data set [1] is below 0.3 µM. Moreover, the CC50 in data set [2] is below 10 µM.
Take `COc1ccc(-c2cnc3nc(N)nc(N4CCN(C(=O)Oc5ccc(Cl)cc5)CC4)c3n2)cc1OC` [Example 63]: the EC50 in data set [1] was below 0.3 µM. The CC50 in data set [2] was below 10 µM.
Taken in the same sequence, the figures for `COCCOC(=O)N1CCN(c2nc(N)nc3ncc(-c4ccc(OC)c(OC)c4)nc23)CC1` [Example 65] were below 0.3 µM and 10 to 20 µM.
In the same order, the values of `COc1ccc(-c2cnc3nc(N)nc(N4CCN(C(C)c5ccccc5)CC4)c3n2)cc1OC` (centres unmarked) [Example 73] are below 0.3 µM and below 10 µM.
Taken in the same sequence, the figures for `COc1ccc(-c2cnc3nc(N)nc(N4CCN(Cc5cccnc5)CC4)c3n2)cc1OC` [Example 80] were below 0.3 µM and 10 to 20 µM.
Regarding `COc1ccc(-c2cnc3nc(N)nc(N4CCN(Cc5ccncc5)CC4)c3n2)cc1OC` [Example 81], in data set [1], the EC50 lay in the range of 0.3 to 1 µM. Besides, in data set [2], the CC50 is 10 to 20 µM.
Turning to `COc1ccc(-c2cnc3nc(N)nc(N4CCN(CC(=O)N5CCOCC5)CC4)c3n2)cc1OC` [Example 83], the EC50 in data set [1] fell in the range of 0.3 to 1 µM. In data set [2], this molecule returned a CC50 above 20 µM.
Take `COc1ccc(-c2cnc3nc(N)nc(N4CCN(CC(=O)N5CCCC5)CC4)c3n2)cc1OC` [Example 84]: the EC50 in data set [1] is below 0.3 µM. In addition, the half-maximal cytotoxic concentration (CC50) in data set [2] was above 20 µM.
Taken in the same sequence, the figures for `COc1ccc(-c2cnc3nc(N)nc(N4CCN(CC(=O)N(C)c5ccccc5)CC4)c3n2)cc1OC` [Example 85] were below 0.3 µM and below 10 µM.
On to `COc1ccc(-c2cnc3nc(N)nc(N4CCN(CCc5ccccc5)CC4)c3n2)cc1OC` [Example 86], for which the EC50 in data set [1] was below 0.3 µM. The same molecule had a CC50 in data set [2] of 10 to 20 µM.
As to `COc1ccc(-c2cnc3nc(N)nc(N4CCN(C(=O)Nc5ccccc5)CC4)c3n2)cc1OC` [Example 87], the half-maximal effective concentration (EC50) in data set [1] was below 0.3 µM. This molecule showed a CC50 in data set [2] below 10 µM.
In the same order, the values of `COc1ccc(-c2cnc3nc(N)nc(N4CCN(C(=O)Nc5ccc(F)cc5)CC4)c3n2)cc1OC` [Example 88] are below 0.3 µM and below 10 µM.
Taken in the same sequence, the figures for `COc1ccc(-c2cnc3nc(N)nc(N4CCN(C(=O)Nc5ccc(C#N)cc5)CC4)c3n2)cc1OC` [Example 89] were below 0.3 µM and above 20 µM.
Regarding `COc1ccc(N2CCN(c3nc(N)nc4ncc(-c5ccc(OC)c(OC)c5)nc34)CC2)cc1` [Example 95], the EC50 in data set [1] lay within 0.3 to 1 µM. The same molecule yielded a CC50 in data set [2] above 20 µM.
Taken in the same sequence, the figures for `CCOC(=O)CN1CCN(c2nc(N)nc3ncc(-c4ccc(OC)c(OC)c4)nc23)CC1` [Example 98] were below 0.3 µM and 10 to 20 µM.

Source of the values: patent US20090318456A1, “SUBSTITUTED PTERIDINES FOR THE TREATMENT AND PREVENTION OF VIRAL INFECTIONS” (Gilead Sciences, Inc., priority 2006, published 2009).
